The source of these data is paper PMC3713324, “Polyisoprenylated Methylated Protein Methyl Esterase Is Both Sensitive to Curcumin and Overexpressed in Colorectal Cancer: Implications for Chemoprevention and Treatment” (BioMed Research International, 2013).

This test concerns the target T1, polyisoprenylated methylated protein methyl esterase (PMPMEase) (Sus scrofa, UniProt Q29550).
T1 construct: purified PMPMEase
T1 sequence (Q29550 19-566): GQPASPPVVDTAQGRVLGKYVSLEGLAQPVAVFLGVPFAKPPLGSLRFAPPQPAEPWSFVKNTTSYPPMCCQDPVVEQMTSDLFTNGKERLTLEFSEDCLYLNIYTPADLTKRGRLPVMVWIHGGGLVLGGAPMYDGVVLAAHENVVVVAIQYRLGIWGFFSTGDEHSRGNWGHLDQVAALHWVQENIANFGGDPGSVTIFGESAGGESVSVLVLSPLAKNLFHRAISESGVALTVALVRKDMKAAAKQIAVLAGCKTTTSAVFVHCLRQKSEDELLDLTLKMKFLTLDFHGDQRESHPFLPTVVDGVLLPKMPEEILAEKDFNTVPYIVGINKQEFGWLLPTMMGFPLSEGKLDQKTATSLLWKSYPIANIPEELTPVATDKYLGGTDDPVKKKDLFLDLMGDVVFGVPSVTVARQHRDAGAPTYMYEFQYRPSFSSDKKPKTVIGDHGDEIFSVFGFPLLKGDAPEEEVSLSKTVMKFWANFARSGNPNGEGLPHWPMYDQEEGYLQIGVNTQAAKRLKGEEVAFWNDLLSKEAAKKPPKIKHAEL
As to the kind of experiment: RP-HPLC assay of RD-PNB hydrolysis by purified enzyme; Michaelis-Menten kinetics; reversibility by gel filtration. The test is classed as biochemical. A general note: Size exclusion chromatography separates by hydrodynamic size, large species first.

Broadly, the Ki is the dissociation constant of the complex between target and ligand, obtained from inhibition or displacement. Read a low Ki as tighter binding. Regarding `COc1cc(/C=C/C(=O)CC(=O)/C=C/c2ccc(O)c(OC)c2)ccc1O` [curcumin], affinity was put at a Ki of 0.31 µM.
